Publication PMC3819306, “Exploring the Binding Nature of Pyrrolidine Pocket-Dependent Interactions in the Polo-Box Domain of Polo-Like Kinase 1” (PLoS ONE, 2013)
Like-named read-outs stand apart in the source and are kept apart here. Where a SMILES comes first, the peptide text is derived from it.

Tests used:
[1] = biological target: T1, Plk1 PBD (Homo sapiens, UniProt P53350); assay: ELISA-based Plk1 PBD-binding inhibition assay
T1 construct: Mitotic 293A lysates expressing HA-EGFP-Plk1 were prepared in the TBSN buffer; expressed in transfected cells; host or cells: 293A cells, mitotic lysate
T1 sequence (P53350 whole entry): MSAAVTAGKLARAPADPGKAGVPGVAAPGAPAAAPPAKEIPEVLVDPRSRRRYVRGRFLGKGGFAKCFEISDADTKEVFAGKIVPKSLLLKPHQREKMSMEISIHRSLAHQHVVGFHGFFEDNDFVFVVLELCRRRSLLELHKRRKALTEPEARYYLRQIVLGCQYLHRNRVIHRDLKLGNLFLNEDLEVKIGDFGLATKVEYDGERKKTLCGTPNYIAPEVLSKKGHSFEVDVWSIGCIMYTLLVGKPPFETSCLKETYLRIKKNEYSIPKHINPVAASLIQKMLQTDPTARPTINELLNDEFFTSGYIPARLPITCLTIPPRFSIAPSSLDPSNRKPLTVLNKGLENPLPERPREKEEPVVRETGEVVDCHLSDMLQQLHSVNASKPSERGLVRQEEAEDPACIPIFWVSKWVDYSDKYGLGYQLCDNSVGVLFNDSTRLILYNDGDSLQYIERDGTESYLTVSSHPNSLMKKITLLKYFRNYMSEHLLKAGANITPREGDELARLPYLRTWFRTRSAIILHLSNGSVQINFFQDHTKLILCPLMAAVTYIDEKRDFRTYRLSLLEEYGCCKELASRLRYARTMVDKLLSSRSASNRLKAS
Protocol: The wells were washed once with PBS + 0.05% Tween 20 (PBST), and incubated with 200 µl of PBS + 1% BSA (blocking buffer) for 1 h to prevent the unoccupied sites. […] Next, the plates were washed four times with PBST, and to detect the bound HA-EGFP-Plk1, the plates were incubated for 2 h with 100 µL/well of anti-HA antibody at a concentration of 0.5 µg/mL in the blocking buffer, and then the plates were washed five times. Furthermore, the plates were incubated with 100 µL/well of secondary antibody at a 1:1,000 dilution in the blocking buffer. Afterward, the plates were washed five times with PBST and incubated with 100 µL/well of 3,3′,5,5′-tetramethylbenzidine (TMB) substrate solution (Sigma, St. Louis, MO) until a desired absorbance was achieved. The reactions were terminated by the addition of 1 N H2SO4, and the optical densities were measured at 450 nm using an ELISA plate reader (Molecular Device, Sunnyvale, CA).

[2] = biological target: T2, PBD of Plk1 (Homo sapiens, UniProt P53350); assay: Fluorescence polarization assay, Plk1 PBD; format: binding; details: 25 nM 5-carboxyfluorescein-DPPLHSpTAI-OH, Figure 8, read-out: IC50 PBD1
T2 construct: The Plk1 PBD protein (residues 371−603) was purified as previously described; made in house
T2 sequence (P53350 371-603): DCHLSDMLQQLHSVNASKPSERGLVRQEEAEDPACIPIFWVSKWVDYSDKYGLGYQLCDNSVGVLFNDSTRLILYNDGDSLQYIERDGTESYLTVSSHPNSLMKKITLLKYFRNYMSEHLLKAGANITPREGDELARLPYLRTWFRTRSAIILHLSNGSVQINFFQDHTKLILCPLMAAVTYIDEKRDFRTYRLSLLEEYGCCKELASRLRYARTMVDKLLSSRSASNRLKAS
Protocol: Fluorescein-labeled peptides (5-carboxyfluorescein-DPPLHSpTAI-OH, final concentration: 25 nM) were incubated with the PBDs of Plk1, Plk2, and Plk3, respectively (final concentrations of buffer components: 10 mM Tris [pH 8.0], 1 mM EDTA, 50 mM NaCl, and 0.01% Nonidet P-40). Fluorescence polarization was analyzed 10 min after mixing all components in the 384-well format using a Molecular Devides SpectraMax Paradigm Multi-Mode Microplate Detection Platform. All experiments were performed in triplicate.

[3] = biological target: T1, Plk1 PBD; design: method as in PMID 19597481; details: cited from earlier work
[4] = ELISA-based assay, text values referring to Figure 2, read-out: IC50 (Plk1 PBD binding)
[5] = first-phase N-alkylated Pro derivatives, HA-EGFP-Plk1 from mitotic 293A lysates vs immobilized p-T78 peptide, Figure 2, read-out: IC50 (ELISA-based Plk1 PBD-binding assay, Figure 2B)

| Compound | IC50 [1, 4] [nM] | IC50 [1, 5] [nM] | IC50 [2] [nM] | other results |
| --- | --- | --- | --- | --- |
| COc1cc(CN2CCC[C@H]2C(=O)N[C@@H](CC(C)C)C(=O)N[C@@H](Cc2c[nH]cn2)C(=O)N[C@@H](CO)C(=O)N[C@H](C(=O)N[C@@H](CCSC)C(N)=O)[C@@H](C)OP(=O)(O)O)cc(OC)c1OC [PL-42, (MeO)3PhCH2PLHSpTM] (HELM PEPTIDE1{[COc1cc(CN2CCC[C@H]2C(=O)[*:2])cc(OC)c1OC].L.H.S.[C[C@@H](OP(=O)(O)O)[C@H](N[*:1])C(=O)[*:2]].M.[am]}$$$$V2.0) | 1480 | 1640 | 522 | – |
| CSCC[C@H](NC(=O)[C@@H](NC(=O)[C@H](CO)NC(=O)[C@H](Cc1c[nH]cn1)NC(=O)[C@H](CC(C)C)NC(=O)[C@@H]1CCCN1CC1CCCCC1)[C@@H](C)OP(=O)(O)O)C(N)=O [PL-49, cyclohexylmethyl-PLHSpTM] (HELM PEPTIDE1{[O=C([C@@H]1CCCN1CC1CCCCC1)[*:2]].L.H.S.[C[C@@H](OP(=O)(O)O)[C@H](N[*:1])C(=O)[*:2]].M.[am]}$$$$V2.0) | 360 | 410 | – | – |
| CSCC[C@H](NC(=O)[C@@H](NC(=O)[C@H](CO)NC(=O)[C@H](Cc1c[nH]cn1)NC(=O)[C@H](CC(C)C)NC(=O)[C@@H]1CCCN1Cc1cc2c(cc1Cl)OCO2)[C@@H](C)OP(=O)(O)O)C(N)=O [PL-43] (HELM PEPTIDE1{[O=C([C@@H]1CCCN1Cc1cc2c(cc1Cl)OCO2)[*:2]].L.H.S.[C[C@@H](OP(=O)(O)O)[C@H](N[*:1])C(=O)[*:2]].M.[am]}$$$$V2.0) | – | 4470 | – | – |
| CSCC[C@H](NC(=O)[C@@H](NC(=O)[C@H](CO)NC(=O)[C@H](Cc1c[nH]cn1)NC(=O)[C@H](CC(C)C)NC(=O)[C@@H]1CCCN1C(=O)CC1CCCCC1)[C@@H](C)OP(=O)(O)O)C(N)=O [PL-57] (HELM PEPTIDE1{[O=C(CC1CCCCC1)[*:2]].P.L.H.S.[C[C@@H](OP(=O)(O)O)[C@H](N[*:1])C(=O)[*:2]].M.[am]}$$$$V2.0) | – | – | – | IC50 ([1]; first-phase N-acylated cyclohexyl analogues, values printed in picture of Figure 4, read-out: IC50 (ELISA-based Plk1 PBD-binding assay, Figure 4B)): 520 nM |
| CSCC[C@H](NC(=O)[C@@H](NC(=O)[C@H](CO)NC(=O)[C@H](Cc1c[nH]cn1)NC(=O)[C@H](CC(C)C)NC(=O)[C@@H]1CCCN1C(=O)CC12CC3CC(CC(C3)C1)C2)[C@@H](C)OP(=O)(O)O)C(N)=O [PL-55] (HELM PEPTIDE1{[O=C(CC12CC3CC(CC(C3)C1)C2)[*:2]].P.L.H.S.[C[C@@H](OP(=O)(O)O)[C@H](N[*:1])C(=O)[*:2]].M.[am]}$$$$V2.0) | – | – | 131 | – |
| LHSpTA | – | – | – | binding to Plk1 PBD compared with PLHSpT [3]: almost as efficiently as the PLHSpT did |
